Measured values as given in ChEMBL document CHEMBL1141771, “p-Aminoacetophenonic acids produced by a mangrove endophyte: Streptomyces griseus subsp” (J Nat Prod, 2005).
The source made the active and inactive calls. The rule behind the calls is not given here.

Legend:
HeLa = assay: Cytotoxicity against human HeLa cells; format: functional, cell-based
[1] = Activity of hydroxysteroid dehydrogenase
K562 = assay: Cytotoxicity against human K562 cells; format: functional, cell-based
[2] = Activity of peroxidase
L929 = assay: Cytotoxicity against mouse L929 cells; format: functional, cell-based

| Activity [1] | Activity [2] | SMILES | Activity (HeLa) | Activity (K562) | Activity (L929) |
| --- | --- | --- | --- | --- | --- |
| inactive | inactive | C/C(=C\C(C)CC(C)C(O)CC(=O)c1ccc(N)cc1)C(=O)O (stereo not given) | inactive | inactive | inactive |
| inactive | inactive | CC(/C=C/C(=O)c1ccc(N)cc1)CC(C)C(=O)O (stereo not given) | inactive | inactive | inactive |
| inactive | inactive | CC(O)C(/C=C/C=C/C(=O)O)C(C)CC(C)C(O)CC(=O)c1ccc(N)cc1 (stereo not given) | inactive | inactive | inactive |
